Laboratory results published in patent US12428455B2, “Dominant negative CEBPB and CEBPD proteins and methods of use for decreasing viability of neoplastic cells” (The Trustees of Columbia University in the City of New York, priority 2018, dated 2025).
No end group written: not given here.

Experiments:
HCT116 cells = assay: Combination with chloroquine, cell number, HCT116; format: cell-based; conditions: 5 μM or 10 μM chloroquine and 3 μM or 10 μM peptide, 6 days
Protocol: Replicate cultures of T98G, MDA-MB 231, and HCT116 cells were treated with 5 μM or 10 μM chloroquine and 3 μM or 10 μM CP-dn-CEBPB and CP-dn-CEBPD peptides, maintained for 6 days, and then assessed for cell number. The bar graphs of FIGS. 29A (T98G, CP-dn-CEBPB), 29C (T98G, CP-dn-CEBPBD, 29E (MDA-MB-231, CP-dn-CEBPBD), 29G (MDA-MB-231, CP-dn-CEBPD), 29I (HCT116, CP-dn-CEBPBB), and 26K (HCT116, CP-dn-CEBPBD) show relative cell numbers for each condition as compared to untreated controls. The line graphs of FIGS. 26B (T98G, CP-dn-CEBPB), 26D (T98G, CP-dn-CEBPBD), 26F (MDA-MB-231, CP-dn-CEBPB), 26H (MDA-MB-231, CP-dn-CEBPD), 26J (HCT116, CP-dn-CEBPB), and 26L (HCT116 CP-dn-CEBPBD) show the response as normalized in each case so that 100 represents the relative number of surviving cells that received the indicated level of chloroquine, but no peptide treatment. The results ranged from near-additive (HCT116 cells, CI=0.92±0.08 for CP-dn-CEBPB and 0.87±0.07 for CP-dn-CEBPD) to apparent synergy (T98G, CI=0.56±0.06 for CP-dn-CEBPB and 0.75±0.03 for CP-dn-CEBPD; MDA-MB-261, CI=0.59±0.11 for CP-dn-CEBPB and 0.47±0.05 for CP-dn-CEBPD).

[1] = test system: MDA-MB-231 breast cancer cells; assay: Cell number after peptide treatment, MDA-MB-231; format: cell-based; conditions: 6 days, 0 μM to 50 μM; stock without BSA
Protocol: (§1) Replicate cultures were exposed to the peptides the for 6 days at the indicated concentrations. Stock solutions of the peptides were prepared in buffer without added bovine serum albumin (BSA).
Replicate cultures of HCT116, MDA-MB 231, MCF7, and T98G cells were exposed to a 50/50 by concentration mixture of CP-DN-CEBPB and CP-DN-CEBPD for 6 days at doses of 0 μM to 50 μM. Stock solutions of the peptides were prepared in buffer without added bovine serum albumin (BSA).
Replicate cultures of T98G, HCT116, MDA-MB 231, and MCF7 cells were exposed to CP-DN-CEBPB, CP-DN-CEBPD, or a CP-DN-CEBPD in which heptad repeat leucine residues were mutated to glycine residues for 6 days at doses of 0 μM to 50 μM. Stock solutions of the peptides were prepared in buffer without added bovine serum albumin (BSA).

[2] = test system: MDA-MB 231, HCT116, and A375 cells; assay: Peptide treatment after doxorubicin pre-treatment, cell number; format: cell-based; conditions: for sensitivity of cells to peptide with or without doxorubicin pre-treatment: 100 nM doxorubicin 24 hours, then 1, 3, 10 or 20 μM peptide, 6 days; for effect on reversibly non-growing or slow-growing cancer cells: after pre-treatment with 100 nM doxorubicin for 24 hours
Protocol: Replicate cultures of MDA-MB 231, HCT116, and A375 cells were pretreated with 100 nM doxorubicin for 24 hours, and then treated with 1 μM, 3 μM, 10 μM, or 20 μM CP-dn-CEBPB and CP-dn-CEBPD peptides, maintained for 6 days, and then assessed for cell number. The bar graphs of FIGS. 31A (MDA-MB 231, CP-dn-CEBPB), 31C (MDA-MB 231, CP-dn-CEBPBD, 31E (HCT116, CP-dn-CEBPBD), 31G (HCT116, CP-dn-CEBPD), 31I (A375, CP-dn-CEBPBB), and 31K (A375, CP-dn-CEBPBD) show relative cell numbers for each condition as compared to untreated controls. The line graphs of FIGS. 31B (MDA-MB 231, CP-dn-CEBPB), 31D (MDA-MB 231, CP-dn-CEBPBD), 31F (HCT116, CP-dn-CEBPB), 31H (HCT116, CP-dn-CEBPD), 31J (A375, CP-dn-CEBPB), and 31L (A375, CP-dn-CEBPBD) show the response as normalized in each case so that 100 represents the relative number of surviving cells that received the indicated level of doxorubicin, but no peptide treatment.

[3] = test system: Mgpp3 murine proneural glioma cells; assay: Cell number after peptide treatment, Mgpp3; format: cell-based; conditions: 6 days, 0 μM to 50 μM; stock without BSA
Protocol: as §1

[4] = test system: MDA-MB-468 breast cancer cells; assay: Cell number after peptide treatment, MDA-MB-468; format: cell-based, human; conditions: 6 days, 0 μM to 50 μM; stock without BSA
Protocol: (§2) Replicate cultures of MDA-MB-468 breast cancer cells, A549 lung cancer cells and 293T transformed embryonic kidney cells were exposed to CP-DN-CEBPB or CP-DN-CEBPD, for 6 days at doses of 0 μM to 50 μM. […] Stock solutions of the peptides were prepared in buffer without added bovine serum albumin (BSA).

MCF7 cells = assay: Combination with paclitaxel, cell number, MCF7; format: cell-based; conditions: 1 nM or 5 nM paclitaxel and 3, 10 or 20 μM peptide, 6 days
Protocol: (§3) Replicate cultures of T98G, MDA-MB 231, and MCF7 cells were treated with 1 nM or 5 nM paclitaxel and 3 μM, 10 μM, or 20 μM CP-dn-CEBPB and CP-dn-CEBPD peptides, maintained for 6 days, and then assessed for cell number. The bar graphs of FIGS. 26A (T98G, CP-dn-CEBPB), 26C (T98G, CP-dn-CEBPBD, 26E (MDA-MB-231, CP-dn-CEBPBD), 26G (MDA-MB-231, CP-dn-CEBPD), 26I (MCF7, CP-dn-CEBPBB), and 26K (MCF7, CP-dn-CEBPBD) show relative cell numbers for each condition as compared to untreated controls. The line graphs of FIGS. 26B (T98G, CP-dn-CEBPB), 26D (T98G, CP-dn-CEBPBD), 26F (MDA-MB-231, CP-dn-CEBPB), 26H (MDA-MB-231, CP-dn-CEBPD), 26J (MCF7, CP-dn-CEBPB), and 26L (MCF7 CP-dn-CEBPBD) show the response as normalized in each case so that 100 represents the relative number of surviving cells that received the indicated level of paclitaxel, but no peptide treatment. Calculated combination indices (CI) were as follows: MCF7: CI=0.41±0.04 for CP-dn-CEBPB; 0.44±0.04 for CP-dn-CEBPD; MDA-MB-231: 0.74±0.03 for CP-dn-CEBPB; 0.74±0.05 for CP-dn-CEBPD; T98G: CI=0.84±0.06 for CP-dn-CEBPB and 0.75±0.07 for CP-dn-CEBPD.

A549 lung cancer cells = assay: Cell number after peptide treatment, A549; format: cell-based; conditions: 6 days, 0 μM to 50 μM; stock without BSA
Protocol: as §2

MDA-MB-231 cells = assay: Combination with paclitaxel, cell number, MDA-MB-231; format: cell-based; conditions: 1 nM or 5 nM paclitaxel and 3, 10 or 20 μM peptide, 6 days
Protocol: as §3

Sequence | CI with chloroquine (HCT116 cells) | growth and survival / numbers of MDA-MB-231 cells [1] | sensitivity of cells to peptide with or without doxorubicin pre-treatment [2] | effect on reversibly non-growing or slow-growing cancer cells [2] | growth and survival of Mgpp3 cells [3] | number of MDA-MB-468 cells [4] | combination index (CI) with paclitaxel (MCF7 cells) | number of A549 cells (A549 lung cancer cells) | combination index (CI) with paclitaxel (MDA-MB-231 cells)
RQIKIWFQNRRMKWKKLETQHKVLELTAENERLQKKVEQLSRELSTLRNLFKQL [CP-DN-CEBPB] | 0.92±0.08 | decrease in growth and survival | retain similar sensitivity | effective to treat reversibly non-growing or slow-growing cancer cells | decrease in growth and survival | dose-dependent decrease in the number | 0.41±0.04 | dose-dependent decrease in the number | 0.74±0.03
RQIKIWFQNRRMKWKKLVELSAENEKLHQRVEQLTRDLAGLRQFFK [CP-DN-CEBPD] | 0.87±0.07 | decrease in growth and survival | retain similar sensitivity | effective to treat reversibly non-growing or slow-growing cancer cells | decrease in growth and survival | dose-dependent decrease in the number | 0.44±0.04 | dose-dependent decrease in the number | 0.74±0.05
